Assay results reported in patent US20260116874A1, “HETEROAROMATIC INDOLESULFONAMIDES” (SEED Therapeutics, Inc., priority 2023, published 2026).
Converted amounts (≈) assume the structure as drawn. Read-outs that look alike come from different tables or passages of the source.

Tests used:
HCT116 colorectal cells = assay: Cell viability assay (CellTiter-Glo) in HCT116 cells; format: cell-based; details: Homo sapiens
Description: HCT116 colorectal cells were used in these experiments. HCT116 cells were obtained from ATCC. The CellTiter-Glo® Luminescent Cell Viability Assay Reagent was obtained from Promega.
Into a 96-well plate, 3000 HCT116 cells were seeded with 100 μL of media (McCoy's 5A Medium supplemented with 10% FBS, 100 units penicillin, and 100 μg streptomycin per mL) 24h before the experiment. For compound treatment, the liquid handling system-Pico machine was used to prepare all the compounds. Each master plate contained serial dilution of 2 compounds, including the control compound E7820. 10 mM compound stock was added to each well of the assay plate to give final concentrations of […], 0.003, 0.002 and 0 μM. Each concentration was tested in triplicate. After 72h, cell viability was determined using CellTiter-Glo Luminescent Cell Viability Assay Reagent following the manufacturer's recommended protocol. Briefly, equilibrate the assay plate and its contents at room temperature for approximately 30 minutes. 100 μL of CellTiter-Glo reagent was added to each well of the assay plate and the contents were mixed for 2 minutes at 500 rpm on an orbital shaker to induce cell lysis (Fisherbrand). The plate was incubated at room temperature for 10 minutes to stabilize luminescent signal. Then the plate was immediately placed in a plate reader (PerkinElmer Multimode Plate Reader Envision2105) and the luminescence signal (0.5 second per well integration time) was determined. IC50 values were calculated using Graphpad Prism 9 software.
Cell viability assays were performed to compare the potency of Compound 1 to Compound 143.

[1] = General solubility protocol (PBS, pH 7.4); format: physicochemical; details: PBS buffer, aqueous buffer, kinetic from dmso stock, pH 7.4, 25° C.
Description: Into a 96-well rack, 15 μL of stock solution (10 mM) of each sample was placed. Into each vial of a cap-less Solubility Sample plate 485 μL of buffer was added. The assay was performed in duplicate. To each vial one stir stick was added and each vial was sealed using a molded PTFE/Silicone plug. The Solubility Sample plate was then transferred to an Eppendorf Thermomixer Comfort plate shaker and shake at 25° C. at 1100 RPM for 2 hours. […] Using a vacuum manifold, all the samples were filtered. An aliquot of 5 μL was taken from the filtrate and 5 μL blank DMSO followed by addition of 490 μL of a mixture of H2O and acetonitrile containing an internal standard (1:1). The dilution factor may be changed according to the solubility value and the LC/MS signal response.

MDR1 = target: T1, MDR1 (Homo sapiens, UniProt P08183); assay: MDCK-MDR1 permeability / efflux assay; format: in vitro ADME, canine; details: dog; for Papp A→B at 2 h, 1 µM: MDCK-MDR1, pH 7.4, MDCK cells, apical to basolateral
T1 construct: expressed in transfected cells; host or cells: MDCK-MDR1 cells (MDCK host)
Description: To prepare transport buffer (HBSS with 10 mM HEPES, pH 7.4), 2.383 g of HEPES and 0.35 g sodium hydrogen carbonate was accurately weighed and added into 900 mL of pure water, then sonicated to dissolve the content. Into the solution was transferred 100 mL of 10×HBSS, and the solution was placed on a stirrer. The pH of the solution was slowly adjusted with sodium hydroxide to 7.4, followed with filtering.
MDCK-MDR1 plate(s) were removed from the incubator. The monolayer was washed the monolayer twice with pre-warmed HBSS (10 mM HEPES, pH 7.4). Then the plate(s) were incubated at 37° C. for 30 minutes.
Propranolol was used as the high permeability marker. Digoxin was used as the substrate of […] (MDR1). Stock solutions of test compound(s) and digoxin in DMSO at 0.2 mM were prepared and diluted with HBSS (10 mM HEPES, pH 7.4) to get 1 μM working solutions. Stock solutions of propranolol in DMSO at 1 mM was prepared and diluted with HBSS (10 mM HEPES, pH 7.4) to get 5 μM working solutions.
To determine the rate of drug transport in the apical to basolateral direction, 125 μL of the working solution was added to the Transwell insert (apical compartment), and a 50 μL sample was immediately transferred from the apical compartment to 200 μL quenching solvents (acetonitrile with 100 nM alprazolam, 200 nM caffeine, 200 nM labetalol and 100 nM tolbutamide) in a new 96-well plate as the initial donor sample (A-B). The plate was shaken at 1000 rpm for 10 minutes. The wells in the receiver plate (basolateral compartment) were filled with 235 μL of transport buffer. All incubations were performed in duplicate.
To determine the rate of drug transport in the basolateral to apical direction, 285 μL of the 1 μM working solution was added to the receiver plate wells (basolateral compartment), and a 50 μL sample was immediately transferred from the basolateral compartment to 200 μL quenching solvents (acetonitrile with 100 nM alprazolam, 200 nM caffeine, 200 nM labetalol and 100 nM tolbutamide) in a new 96-well plate as the initial donor sample (B-A). Shake the plate at 1000 rpm 10 minutes. The Transwell insert (apical compartment) was filled with 75 μL of transport buffer. The apical to basolateral direction and the basolateral to apical direction were done at the same time.
The Transwell insert plate was inserted into the basolateral plate, transferred into the incubator and incubated at 37° C. for 2 hours.
At the end of the incubation, 50 μL samples from donor sides (apical compartment for Ap→Bl flux, and basolateral compartment for Bl→Ap flux) and receiver sides (basolateral compartment for Ap→Bl flux, and apical compartment for Bl→Ap flux) were transferred to wells of a new 96-well plate, followed by the addition of 4 volume of quenching solvents (acetonitrile with 100 nM alprazolam, 200 nM caffeine, 200 nM labetalol and 100 nM tolbutamide). Samples were Vortexed for 10 minutes and then centrifuged at 3,220 g for 40 minutes. An aliquot of 100 μL of the supernatant was mixed with an appropriate volume of ultra-pure water before LC-MS/MS analysis.
To determine the Lucifer yellow leakage after 2-hour transport period, Lucifer yellow working solutions were prepared by diluting the stock solution with HBSS (10 mM HEPES, pH 7.4) to reach the final concentration of 100 μM. To the apical compartment, 100 μL of the Lucifer yellow solution were added. The plate(s) were incubated at 37° C. for 30 minutes and 80 μL was directly removed from the apical and basolateral wells and transferred to new 96 wells plates. Lucifer yellow fluorescence (to monitor monolayer integrity) was measured in a fluorescence plate reader at 485 nm excitation and 530 nm emission.

[2] = Telencephalon concentrations after oral administration; format: in vivo, female BALB/c mice; details: for AUC(0-t) / Cmax: mouse, 20 mg/kg, telencephalon, female BALB/c mice, Table 8
[3] = HCT-116, 72h, CellTiter-Glo, read-out: HCT116 Assay (IC50)
[4] = HCT-116, FIG. 5, read-out: IC50 for inhibiting cell growth in HCT116 colorectal cells
[5] = MDCK-MDR1, pH 7.4, MDCK cells, Table 6, read-out: MDCK Permeability Efflux Ratio
[6] = MDCK-MDR1, pH 7.4, MDCK-MDR1, 1 μM, 2 hours, Table 3, read-out: MDCK-MDR1 Efflux ratio

T1 sequence (P08183 whole entry): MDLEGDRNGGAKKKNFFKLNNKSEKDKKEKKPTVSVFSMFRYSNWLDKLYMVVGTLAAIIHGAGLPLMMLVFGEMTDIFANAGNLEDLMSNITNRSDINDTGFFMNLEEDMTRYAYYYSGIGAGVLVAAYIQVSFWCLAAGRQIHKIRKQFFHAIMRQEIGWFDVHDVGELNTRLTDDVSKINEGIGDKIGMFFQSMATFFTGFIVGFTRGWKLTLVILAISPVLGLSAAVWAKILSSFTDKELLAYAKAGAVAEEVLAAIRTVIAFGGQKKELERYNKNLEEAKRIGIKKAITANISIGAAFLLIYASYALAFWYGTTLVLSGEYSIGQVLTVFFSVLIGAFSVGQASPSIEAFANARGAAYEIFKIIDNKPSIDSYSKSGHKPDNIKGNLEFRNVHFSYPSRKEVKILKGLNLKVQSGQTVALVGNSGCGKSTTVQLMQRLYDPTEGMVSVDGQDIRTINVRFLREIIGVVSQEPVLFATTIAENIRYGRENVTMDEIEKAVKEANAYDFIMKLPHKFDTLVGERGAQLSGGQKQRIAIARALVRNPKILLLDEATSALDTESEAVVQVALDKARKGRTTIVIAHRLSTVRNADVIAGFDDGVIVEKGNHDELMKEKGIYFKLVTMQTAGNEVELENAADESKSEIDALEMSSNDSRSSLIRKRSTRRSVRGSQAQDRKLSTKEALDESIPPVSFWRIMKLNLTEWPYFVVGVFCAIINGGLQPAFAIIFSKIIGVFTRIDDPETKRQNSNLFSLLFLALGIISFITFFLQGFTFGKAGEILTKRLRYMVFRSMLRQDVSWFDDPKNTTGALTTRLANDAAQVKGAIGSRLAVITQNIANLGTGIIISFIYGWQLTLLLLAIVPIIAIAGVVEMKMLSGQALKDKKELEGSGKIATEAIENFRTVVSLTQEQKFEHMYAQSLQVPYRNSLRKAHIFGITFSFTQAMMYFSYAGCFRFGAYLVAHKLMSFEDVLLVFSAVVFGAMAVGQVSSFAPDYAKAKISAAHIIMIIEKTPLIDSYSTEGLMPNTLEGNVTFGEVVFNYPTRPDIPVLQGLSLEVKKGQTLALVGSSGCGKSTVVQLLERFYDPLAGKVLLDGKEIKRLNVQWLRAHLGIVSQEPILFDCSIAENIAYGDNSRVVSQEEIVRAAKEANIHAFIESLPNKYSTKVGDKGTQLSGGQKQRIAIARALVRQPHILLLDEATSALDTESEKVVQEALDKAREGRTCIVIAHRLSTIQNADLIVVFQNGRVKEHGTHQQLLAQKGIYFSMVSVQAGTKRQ

Cc1ncc(S(=O)(=O)Nc2ccc(C)c3c(C#N)c[nH]c23)s1 [Compound 1, N-(3-cyano-4-methyl-1H-indol-7-yl)-2-methyl-thiazole-5-sulfonamide]
IC50 (HCT116 colorectal cells; [3]): < 500 nM | IC50 (HCT116 colorectal cells; [4]): 259 nM | solubility at 2 h [1]: 51.5 µM (≈ 17.1 µg/mL) | efflux ratio at 2 h, 1 µM (MDR1; [5]): 26 | efflux ratio at 2 h, 1 µM (MDR1; [6]): 25.5 | Papp A→B at 2 h, 1 µM (MDR1; Table 6): 1.9 ×10⁻⁶ cm/s | increase in telencephalon AUC compared to E7820 ([2]; compared to E7820): 2 fold | AUC(0-t) [2]: 774 ng·h/mL | Cmax [2]: 193 ng/mL

[2H]C([2H])([2H])c1ncc(S(=O)(=O)Nc2ccc(C)c3c(C#N)c[nH]c23)s1 [Compound 143, N-(3-cyano-4-methyl-1H-indol-7-yl)-2-(methyl-d3)thiazole-5-sulfonamide]
IC50 (HCT116 colorectal cells; [3]): < 500 nM | IC50 (HCT116 colorectal cells; [4]): 255 nM | efflux ratio at 2 h, 1 µM (MDR1; [5]): 12 | Papp A→B at 2 h, 1 µM (MDR1; Table 6): 2.9 ×10⁻⁶ cm/s | increase in telencephalon AUC compared to Compound 1 ([2]; compared to Compound 1): 2.5 fold | AUC(0-t) [2]: 2060 ng·h/mL | Cmax [2]: 373 ng/mL

Cc1ccc(NS(=O)(=O)c2cccc(C#N)c2)c2[nH]cc(C#N)c12 [Compound E7820, E7820, reference compound]
solubility at 2 h [1]: 80.7 µM (≈ 27.2 µg/mL) | efflux ratio at 2 h, 1 µM (MDR1; [5]): 30 | efflux ratio at 2 h, 1 µM (MDR1; [6]): 29.9 | Papp A→B at 2 h, 1 µM (MDR1; Table 6): 1.1 ×10⁻⁶ cm/s
